Laboratory results taken from ChEMBL document CHEMBL3779878, “Indomethacin based new triazolothiadiazine derivatives: Synthesis, evaluation of their anticancer effects on T98 human glioma cell line related to COX-2 inhibition and docking studies” (2016).
Activity calls are given as the source filed them. The rule behind the calls is not given here.

Assays:
T98 [1] = test: Effect on caspase 8 mRNA expression levels in human T98 cells at 50 to 100 uM by real-time PCR assay; format: functional, cell-based
[2] = Induction of apoptosis in human T98 cells assessed as total death rate at 100 uM after 24 hrs by Annexin-V-FITC/propidium iodide staining based flow cytometry analysis (reference value: 3.8 %); format: functional
T98 [3] = test: Induction of apoptosis in human T98 cells assessed as alive cells at 50 uM after 24 hrs by Annexin-V-FITC/propidium iodide staining based flow cytometry analysis (reference value: 95 +/- 5.6 %); format: functional
T98 [4] = test: Effect on cytochrome-c mRNA expression levels in human T98 cells at 50 to 100 uM by real-time PCR assay; format: functional, cell-based
T98 [5] = test: Induction of apoptosis in human T98 cells assessed as early apoptotic cells at 100 uM after 24 hrs by Annexin-V-FITC/propidium iodide staining based flow cytometry analysis (reference value: 1.1 +/- 0.3 %); format: functional
T98 [6] = test: Induction of apoptosis in human T98 cells assessed as late apoptotic cells at 50 uM after 24 hrs by Annexin-V-FITC/propidium iodide staining based flow cytometry analysis (reference value: 2.7 +/- 1.4 %); format: functional
[7] = Antiproliferative activity against human T98 cells assessed as reduction in survival rate at 50 uM after 24 hrs by MTT assay relative to control; format: functional
T98 [8] = test: Effect on caspase 9 mRNA expression levels in human T98 cells at 50 to 100 uM by real-time PCR assay; format: functional, cell-based
T98 [9] = test: Antiproliferative activity against human T98 cells assessed as reduction in survival rate at 1 to 100 uM after 24 hrs by MTT assay; format: functional, cell-based
T98 [10] = test: Effect on caspase 3 mRNA expression levels in human T98 cells at 50 to 100 uM by real-time PCR assay; format: functional, cell-based
T98 [11] = test: Induction of apoptosis in human T98 cells assessed as early apoptotic cells at 50 uM after 24 hrs by Annexin-V-FITC/propidium iodide staining based flow cytometry analysis (reference value: 1.1 +/- 0.3 %); format: functional
[12] = Induction of apoptosis in human T98 cells assessed as total death rate at 50 uM after 24 hrs by Annexin-V-FITC/propidium iodide staining based flow cytometry analysis (reference value: 3.8 %); format: functional
[13] = Antiproliferative activity against human T98 cells assessed as reduction in survival rate at 100 uM after 24 hrs by MTT assay relative to control; format: functional
T98 [14] = test: Induction of apoptosis in human T98 cells assessed as late apoptotic cells at 100 uM after 24 hrs by Annexin-V-FITC/propidium iodide staining based flow cytometry analysis (reference value: 2.7 +/- 1.4 %); format: functional
T98 [15] = test: Induction of apoptosis in human T98 cells assessed as alive cells at 100 uM after 24 hrs by Annexin-V-FITC/propidium iodide staining based flow cytometry analysis (reference value: 95 +/- 5.6 %); format: functional
[16] = Reduction in Cox-2 mRNA expression levels in human T98 cells by real-time PCR assay; format: functional, cell-based

## COc1ccc2c(c1)c(Cc1nnc3n1N=C(c1ccc(C)cc1)CS3)c(C)n2C(=O)c1ccc(Cl)cc1
T98 [1]
  Activity: inactive
[2]
  Activity: 59%
T98 [3]
  Activity: 39%
T98 [4]
  Activity: inactive
T98 [5]
  Activity: 12%
T98 [6]
  Activity: 38%
[7]
  Activity: 25%
T98 [8]
  Activity: inactive
T98 [9]
  Activity: Active
T98 [10]
  Activity: inactive
T98 [11]
  Activity: 11%
[12]
  Activity: 49%
[13]
  Activity: 40%
T98 [14]
  Activity: 47%
T98 [15]
  Activity: 31%
[16]
  Activity: Dose-dependent effect
